Results from patent US20230116703A1, “NOVEL ERGOLINES AND METHODS OF TREATING MOOD DISORDERS” (priority 2021, published 2023).

Legend:
[1] = Metabolic stability in mouse liver microsomes (MLM); type: in vitro ADME; conditions: 0.50 mg protein per mL; for t1/2: MLM (CD-1), 1 μM; for microsomal CLint at 1 μM: mouse, pooled mouse liver microsomes, pH 7.4, MLM (CD-1)
Text: MLM Stability Pooled MLM from CD-1 mice (BIOIVT M00501) were used.

5-HT2A receptor [2] = molecular target: T1, 5-HT2A receptor (Homo sapiens, UniProt P28223); test: cell-based; type: cell-based; conditions: Ca^2+ flux, agonist; read-out: 5-HT2A EC50
T1 construct: host or cells: HEK293

5-HT2B receptor = molecular target: T2, 5-HT2B receptor (Homo sapiens, UniProt P41595); test: cell-based; conditions: Ca^2+ flux, agonist; read-out: 5-HT2B EC50
T2 construct: host or cells: HEK293

5-HT1A receptor = molecular target: T3, 5-HT1A receptor (Homo sapiens, UniProt P08908); test: cell-based; conditions: Ca^2+ flux, agonist; read-out: 5-HT1A EC50
T3 construct: host or cells: CHO cells
T3 sequence (P08908 1-422): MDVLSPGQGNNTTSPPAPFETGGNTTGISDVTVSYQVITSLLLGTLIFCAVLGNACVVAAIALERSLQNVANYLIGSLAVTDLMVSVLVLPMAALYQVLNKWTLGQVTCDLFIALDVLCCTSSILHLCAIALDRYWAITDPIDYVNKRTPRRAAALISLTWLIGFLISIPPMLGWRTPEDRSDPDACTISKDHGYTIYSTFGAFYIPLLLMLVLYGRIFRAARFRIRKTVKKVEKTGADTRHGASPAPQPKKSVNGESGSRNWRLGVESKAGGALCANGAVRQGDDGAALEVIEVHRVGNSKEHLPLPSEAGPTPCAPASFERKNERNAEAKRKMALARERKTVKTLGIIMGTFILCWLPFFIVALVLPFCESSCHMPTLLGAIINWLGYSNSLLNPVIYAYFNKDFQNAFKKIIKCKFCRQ

5-HT2A receptor [3] = molecular target: T1, 5-HT2A receptor; test: biochemical; type: binding; conditions: 1 nM [^3H]ketanserin, HEK293 stable cell line; read-out: 5-HT2A Receptor Ki (nM) ([^3H]ketanserin)
Method in brief: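 Affinity was measured in radioligand binding experiments using [^3H]ketanserin as the labelled ligand, following methods adapted from published procedures.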

Alpha1A receptor = molecular target: T4, Alpha1A receptor (Homo sapiens, UniProt P35348); test: FLIPR Ca^2+ flux agonist assay at Alpha1A; type: cell-based
T4 sequence (P35348 1-466): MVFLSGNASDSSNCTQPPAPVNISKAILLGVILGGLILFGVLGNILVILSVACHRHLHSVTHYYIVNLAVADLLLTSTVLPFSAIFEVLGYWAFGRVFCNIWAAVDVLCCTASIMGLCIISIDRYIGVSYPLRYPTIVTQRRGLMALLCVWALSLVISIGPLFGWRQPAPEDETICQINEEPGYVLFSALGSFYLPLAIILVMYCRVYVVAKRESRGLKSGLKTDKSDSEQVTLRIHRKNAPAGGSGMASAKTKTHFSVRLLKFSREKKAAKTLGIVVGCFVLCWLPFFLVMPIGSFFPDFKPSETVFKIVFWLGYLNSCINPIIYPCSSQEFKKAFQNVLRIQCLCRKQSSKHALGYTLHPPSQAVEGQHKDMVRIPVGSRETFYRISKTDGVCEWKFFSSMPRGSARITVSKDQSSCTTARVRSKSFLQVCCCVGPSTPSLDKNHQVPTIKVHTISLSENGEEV
Experimental: Disclosed compounds were tested for agonist activity at several adrenergic (Alpha1A and Alpha2A) and dopamine (D1 and D2) receptor subtypes using Ca^2+ flux functional assays, with the results summarized in Table 6. Selectivity for the 5-HT2A receptor over these other targets varied depending on the specific target and compound.
(§1) Functional Assays at Adrenergic and Dopamine Receptors. Agonist activity at Alpha1A, Alpha2A, D1, and D2 receptors was determined using a FLIPR Ca^2+ flux assay at WuXi AppTec (Hong Kong) Limited according to their standard protocols. Briefly, stably transfected cells expressing the receptor of interest were grown and plated in a 384 well plate and incubated at 37° C. and 5% CO2 overnight. A solution of 250 mM probenecid in 1 mL FLIPR assay buffer was prepared fresh. This was combined with a fluorescent dye (Fluo-4 Direct™) to make a final assay concentration of 2.5 mM. Compounds were diluted 1:3.16 for 10 points and 750 nL was added to a 384 well compound plate using ECHO along with 30 μL assay buffer. The fluorescent dye was then added to the assay plate along with assay buffer to a final volume of 40 μL. The cell plate was incubated for 50 min at 37° C. and 5% CO2 and placed into the FLIPR Tetra along with the compound plate. 10 μL of references and compounds were then transferred from the compound plate into the cell plate and the fluorescent signal was read.

[4] = Metabolic stability in rat liver microsomes (RLM); conditions: for t1/2: RLM, 0.50 mg protein per mL; for microsomal CLint at 1 μM: both, rat, pooled rat liver microsomes, pH 7.4
[5] = Metabolic stability in human liver microsomes (HLM); type: in vitro ADME; conditions: for t1/2: 1 μM, 0.50 mg protein per mL; for microsomal CLint at 1 μM: both sexes, human, pooled human liver microsomes, pH 7.4, 0.50 mg protein per mL
Text: HLM Stability. Pooled HLM from adult male and female donors (Corning 452117) were used.

5-HT1B receptor = 5-HT1B receptor (Homo sapiens, UniProt P28222); test: cAMP accumulation agonist assay at 5-HT1B; type: cell-based; conditions: cAMP, agonist; read-out: 5-HT1B EC50
Method in brief: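 Agonism was measured by cAMP accumulation in stably transfected cells incubated 60 min at RT. A detection reagent was then added for 60 min at RT before reading, with an 800 nM cAMP standard in blank wells.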

D1 receptor = D1 receptor (Homo sapiens, UniProt P21728); test: FLIPR Ca^2+ flux agonist assay at D1; type: cell-based
Experimental: as §1, with “Compounds were diluted 1:3.16 for 10 points and 750 nL was added to a 384 well compound plate using ECHO along with 30 μL assay buffer.” left out

5-HT2A receptor [6] = molecular target: T1, 5-HT2A receptor; test: PathHunter beta-arrestin recruitment assay at 5-HT2A; type: cell-based; conditions: 5-HT2A beta-arrestin
Method in brief: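 Cells co-express PK-tagged 5-HT2A and beta-arrestin fused to a beta-galactosidase deletion mutant, so arrestin recruitment restores enzyme activity, read by chemiluminescence; cells were held at 37° C before testing. Agonist % activity = RLU over vehicle, relative to the maximal control ligand.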

D2 receptor = D2 receptor (Homo sapiens, UniProt P14416); test: FLIPR Ca^2+ flux agonist assay at D2; type: cell-based
Experimental: as §1, with “Compounds were diluted 1:3.16 for 10 points and 750 nL was added to a 384 well compound plate using ECHO along with 30 μL assay buffer.” left out

T1 sequence (P28223 whole entry): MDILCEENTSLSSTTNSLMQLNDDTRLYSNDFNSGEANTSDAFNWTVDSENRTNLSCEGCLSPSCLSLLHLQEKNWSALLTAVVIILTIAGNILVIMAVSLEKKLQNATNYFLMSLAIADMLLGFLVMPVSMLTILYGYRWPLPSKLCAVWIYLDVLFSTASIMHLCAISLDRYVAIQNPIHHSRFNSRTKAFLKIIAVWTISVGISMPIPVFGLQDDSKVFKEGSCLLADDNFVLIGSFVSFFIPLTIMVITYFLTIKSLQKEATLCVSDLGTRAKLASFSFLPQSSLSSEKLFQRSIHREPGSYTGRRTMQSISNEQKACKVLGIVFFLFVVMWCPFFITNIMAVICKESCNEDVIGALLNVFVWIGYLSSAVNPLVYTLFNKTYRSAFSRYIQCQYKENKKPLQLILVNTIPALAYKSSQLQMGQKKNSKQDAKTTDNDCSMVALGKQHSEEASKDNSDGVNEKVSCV
Sequence of 5-HT1B receptor (P28222 whole entry): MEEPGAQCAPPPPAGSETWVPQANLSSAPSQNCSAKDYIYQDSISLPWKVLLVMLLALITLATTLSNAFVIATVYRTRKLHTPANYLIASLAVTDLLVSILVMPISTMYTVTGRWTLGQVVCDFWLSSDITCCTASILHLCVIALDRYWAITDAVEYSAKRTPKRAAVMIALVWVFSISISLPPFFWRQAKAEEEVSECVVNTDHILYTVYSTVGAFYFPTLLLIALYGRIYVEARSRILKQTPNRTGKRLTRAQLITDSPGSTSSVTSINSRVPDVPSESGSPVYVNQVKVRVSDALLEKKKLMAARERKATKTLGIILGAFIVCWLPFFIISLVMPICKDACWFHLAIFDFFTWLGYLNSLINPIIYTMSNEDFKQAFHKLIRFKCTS
T2 sequence (P41595 whole entry): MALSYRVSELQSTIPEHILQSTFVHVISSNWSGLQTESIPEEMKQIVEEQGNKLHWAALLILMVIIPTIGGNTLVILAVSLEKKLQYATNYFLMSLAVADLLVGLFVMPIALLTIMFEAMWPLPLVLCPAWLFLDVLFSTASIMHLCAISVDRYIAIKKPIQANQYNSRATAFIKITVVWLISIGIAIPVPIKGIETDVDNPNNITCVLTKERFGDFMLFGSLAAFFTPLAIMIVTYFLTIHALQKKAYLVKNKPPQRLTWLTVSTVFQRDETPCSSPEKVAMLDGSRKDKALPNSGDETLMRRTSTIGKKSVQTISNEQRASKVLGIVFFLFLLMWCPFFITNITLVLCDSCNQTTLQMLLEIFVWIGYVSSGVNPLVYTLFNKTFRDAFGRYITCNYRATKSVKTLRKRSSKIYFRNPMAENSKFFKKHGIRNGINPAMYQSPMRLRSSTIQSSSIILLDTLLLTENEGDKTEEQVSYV
Sequence of D2 receptor (P14416 whole entry): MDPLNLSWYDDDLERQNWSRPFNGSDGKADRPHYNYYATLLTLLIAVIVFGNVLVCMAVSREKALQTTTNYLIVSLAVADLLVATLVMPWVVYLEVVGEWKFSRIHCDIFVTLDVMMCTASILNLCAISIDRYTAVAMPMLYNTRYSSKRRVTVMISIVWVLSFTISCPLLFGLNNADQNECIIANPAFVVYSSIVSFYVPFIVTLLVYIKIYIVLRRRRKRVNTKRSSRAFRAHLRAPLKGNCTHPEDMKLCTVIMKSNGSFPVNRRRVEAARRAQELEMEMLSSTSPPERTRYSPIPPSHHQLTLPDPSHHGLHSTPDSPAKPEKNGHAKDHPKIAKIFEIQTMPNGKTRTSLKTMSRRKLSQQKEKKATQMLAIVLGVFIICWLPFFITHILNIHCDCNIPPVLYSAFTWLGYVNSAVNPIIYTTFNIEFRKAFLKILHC
Sequence of D1 receptor (P21728 whole entry): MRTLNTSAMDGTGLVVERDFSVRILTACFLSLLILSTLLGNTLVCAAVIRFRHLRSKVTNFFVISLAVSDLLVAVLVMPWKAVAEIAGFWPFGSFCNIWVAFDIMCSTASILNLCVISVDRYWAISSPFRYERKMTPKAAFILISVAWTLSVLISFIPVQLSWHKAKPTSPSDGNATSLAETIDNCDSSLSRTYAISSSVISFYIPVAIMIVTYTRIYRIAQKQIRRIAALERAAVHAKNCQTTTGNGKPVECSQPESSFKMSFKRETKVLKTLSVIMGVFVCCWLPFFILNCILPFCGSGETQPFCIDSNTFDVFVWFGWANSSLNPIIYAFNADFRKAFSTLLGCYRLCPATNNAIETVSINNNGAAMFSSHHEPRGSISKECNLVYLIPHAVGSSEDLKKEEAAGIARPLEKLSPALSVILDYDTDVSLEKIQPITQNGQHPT

CCN(CC)C(=O)[C@@H]1C=C2c3cccc4[nH]cc(c34)C[C@H]2N(CCC(F)(F)F)C1 [Compound 12, (6aR,9R)—N,N-diethyl-7-(3,3,3-trifluoropropyl)-4,6,6a,7,8,9-hexahydroindolo[4,3-fg]quinoline-9-carboxamide]
t1/2 [1]: 2.1 min | microsomal CLint at 1 μM [1]: 655 µL/min/mg | EC50 (5-HT2A receptor [2]): 52.9 nM | EC50 (5-HT2B receptor): 154 nM | EC50 (5-HT1A receptor): 2140 nM | Ki (5-HT2A receptor [3]): 5.61 nM | EC50 (Alpha1A receptor): > 3160 nM | t1/2 [4]: 5.9 min | microsomal CLint at 1 μM [4]: 236 µL/min/mg | t1/2 [5]: 13.5 min | microsomal CLint at 1 μM [5]: 103 µL/min/mg | EC50 (5-HT1B receptor): 194 nM

CCN(CC)C(=O)[C@@H]1C=C2c3cccc4[nH]cc(c34)C[C@H]2N(C)C1 [LSD, lysergic acid diethylamide, reference compound]
EC50 (D1 receptor): 4.87 nM | Emax (5-HT2A receptor [6]): < 60% | agonist type in arrestin recruitment assay (in words) (5-HT2A receptor [6]): partial agonists | t1/2 [1]: 31.3 min | microsomal CLint at 1 μM [1]: 44.2 µL/min/mg | EC50 (Alpha1A receptor): 91.1 nM | EC50 (D2 receptor): 4.93 nM | t1/2 [4]: 60.2 min | microsomal CLint at 1 μM [4]: 23 µL/min/mg | t1/2 [5]: 71.6 min | microsomal CLint at 1 μM [5]: 19.4 µL/min/mg | EC50 (5-HT1B receptor): 2.06 nM

CCN(CC)C(=O)[C@@H]1C=C2c3cccc4[nH]cc(c34)C[C@H]2N(CC2CC2)C1 [Compound 13, (6aR,9R)—N,N-diethyl-7-(cyclopropylmethyl)-4,6,6a,7,8,9-hexahydroindolo[4,3-fg]quinoline-9-carboxamide]
t1/2 [1]: 3.7 min | microsomal CLint at 1 μM [1]: 376 µL/min/mg | EC50 (5-HT2A receptor [2]): 25.9 nM | EC50 (5-HT2B receptor): 182 nM | EC50 (5-HT1A receptor): 15.3 nM | Ki (5-HT2A receptor [3]): 2.23 nM | EC50 (Alpha1A receptor): 44.6 nM | t1/2 [4]: 27.7 min | microsomal CLint at 1 μM [4]: 50 µL/min/mg | t1/2 [5]: 21.1 min | microsomal CLint at 1 μM [5]: 65.7 µL/min/mg | EC50 (5-HT1B receptor): 98.6 nM
